From the supplement of paper PMC10883282

Experiments:
Assay in all cases: relative viability vs DMSO control (72 h) (fraction); higher = more viable cells
SK-ES-1 = tested on: SK-ES-1
Outline: (§1)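 Relative viability was measured with ATPLite and expressed as percent growth, averaged across up to triplicate wells. Sarcoma cell lines had been seeded in 384-well plates to reach 80–90% confluence, dosed after 24 h, and incubated 72 h at 37 °C, 5% CO2. All data were rescaled on a scale where 1 is full and 0 is none.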

SW684 = tested on: SW684
Outline: as §1

HS729 = tested on: HS729
Outline: as §1

VA-ES-BJ = tested on: VA-ES-BJ
Outline: as §1

KHOS-NP = tested on: KHOS-NP
Outline: as §1

A204 = tested on: A204
Outline: as §1

SW872 = tested on: SW872
Outline: as §1

SK-LMS-1 = tested on: SK-LMS-1
Outline: as §1

SYO-1 = tested on: SYO-1
Outline: as §1

MES-SA = tested on: MES-SA
Outline: as §1

RD = tested on: RD
Outline: as §1

G401 = tested on: G401
Outline: as §1

O=C(Nc1ccc(OC(F)(F)Cl)cc1)c1cnc(N2CC[C@@H](O)C2)c(-c2cc[nH]n2)c1 [Asciminib]
Details | relative viability
A204, 0.00017 µM | 1.02
A204, 0.00051 µM | 1.04
A204, 0.00152 µM | 1.05
A204, 0.00457 µM | 1.04
A204, 0.01372 µM | 1.04
A204, 0.04115 µM | 1.05
A204, 0.1235 µM | 1.06
A204, 0.3704 µM | 1.06
A204, 1.111 µM | 1.04
A204, 3.333 µM | 0.799
A204, 10 µM | 0.449
G401, 0.00017 µM | 0.949
G401, 0.00051 µM | 0.921
G401, 0.00152 µM | 0.928
G401, 0.00457 µM | 0.967
G401, 0.01372 µM | 0.961
G401, 0.04115 µM | 0.981
G401, 0.1235 µM | 0.981
G401, 0.3704 µM | 0.99
G401, 1.111 µM | 0.9822
G401, 3.333 µM | 0.909
G401, 10 µM | 0.831
HS729, 0.00017 µM | 0.939
HS729, 0.00051 µM | 0.932
HS729, 0.00152 µM | 0.93
HS729, 0.00457 µM | 0.915
HS729, 0.01372 µM | 0.916
HS729, 0.04115 µM | 0.893
HS729, 0.1235 µM | 0.928
HS729, 0.3704 µM | 0.901
HS729, 1.111 µM | 0.903
HS729, 3.333 µM | 0.954
HS729, 10 µM | 0.829
KHOS-NP, 0.00017 µM | 1.04
KHOS-NP, 0.00051 µM | 1.06
KHOS-NP, 0.00152 µM | 1.06
KHOS-NP, 0.00457 µM | 1.04
KHOS-NP, 0.01372 µM | 1.061
KHOS-NP, 0.04115 µM | 1.04
KHOS-NP, 0.1235 µM | 1.06
KHOS-NP, 0.3704 µM | 1.025
KHOS-NP, 1.111 µM | 0.998
KHOS-NP, 3.333 µM | 0.901
KHOS-NP, 10 µM | 0.695
MES-SA, 0.00017 µM | 0.88
MES-SA, 0.00051 µM | 0.902
MES-SA, 0.00152 µM | 0.864
MES-SA, 0.00457 µM | 0.898
MES-SA, 0.01372 µM | 0.9132
MES-SA, 0.04115 µM | 0.9229
MES-SA, 0.1235 µM | 0.914
MES-SA, 0.3704 µM | 0.951
MES-SA, 1.111 µM | 0.908
MES-SA, 3.333 µM | 0.829
MES-SA, 10 µM | 0.577
RD, 0.00017 µM | 1.05
RD, 0.00051 µM | 1.049
RD, 0.00152 µM | 1.067
RD, 0.00457 µM | 1.08
RD, 0.01372 µM | 1.05
RD, 0.04115 µM | 1.092
RD, 0.1235 µM | 1.088
RD, 0.3704 µM | 1.11
RD, 1.111 µM | 1.04
RD, 3.333 µM | 1.07
RD, 10 µM | 0.984
SK-ES-1, 0.00017 µM | 0.975
SK-ES-1, 0.00051 µM | 0.999
SK-ES-1, 0.00152 µM | 1
SK-ES-1, 0.00457 µM | 1
SK-ES-1, 0.01372 µM | 0.992
SK-ES-1, 0.04115 µM | 1.01
SK-ES-1, 0.1235 µM | 1.01
SK-ES-1, 0.3704 µM | 1.02
SK-ES-1, 1.111 µM | 0.995
SK-ES-1, 3.333 µM | 0.906
SK-ES-1, 10 µM | 0.814
SK-LMS-1, 0.00017 µM | 0.928
SK-LMS-1, 0.00051 µM | 0.955
SK-LMS-1, 0.00152 µM | 0.972
SK-LMS-1, 0.00457 µM | 0.97
SK-LMS-1, 0.01372 µM | 1.06
SK-LMS-1, 0.04115 µM | 1.02
SK-LMS-1, 0.1235 µM | 1
SK-LMS-1, 0.3704 µM | 1.05
SK-LMS-1, 1.111 µM | 1.04
SK-LMS-1, 3.333 µM | 0.773
SK-LMS-1, 10 µM | 0.565
SW684, 0.00017 µM | 1.09
SW684, 0.00051 µM | 1.06
SW684, 0.00152 µM | 1.09
SW684, 0.00457 µM | 1.09
SW684, 0.01372 µM | 1.08
SW684, 0.04115 µM | 1.102
SW684, 0.1235 µM | 1.16
SW684, 0.3704 µM | 1.23
SW684, 1.111 µM | 1.18
SW684, 3.333 µM | 1.11
SW684, 10 µM | 0.627
SW872, 0.00017 µM | 0.966
SW872, 0.00051 µM | 0.94
SW872, 0.00152 µM | 0.939
SW872, 0.00457 µM | 0.938
SW872, 0.01372 µM | 0.937
SW872, 0.04115 µM | 0.978
SW872, 0.1235 µM | 0.9486
SW872, 0.3704 µM | 1.01
SW872, 1.111 µM | 0.991
SW872, 3.333 µM | 0.974
SW872, 10 µM | 0.93
SYO-1, 0.00017 µM | 0.92
SYO-1, 0.00051 µM | 0.91
SYO-1, 0.00152 µM | 0.919
SYO-1, 0.00457 µM | 0.927
SYO-1, 0.01372 µM | 0.904
SYO-1, 0.04115 µM | 0.893
SYO-1, 0.1235 µM | 0.866
SYO-1, 0.3704 µM | 0.844
SYO-1, 1.111 µM | 0.813
SYO-1, 3.333 µM | 0.76
SYO-1, 10 µM | 0.6731
VA-ES-BJ, 0.00017 µM | 0.998
VA-ES-BJ, 0.00051 µM | 0.982
VA-ES-BJ, 0.00152 µM | 0.995
VA-ES-BJ, 0.00457 µM | 0.99
VA-ES-BJ, 0.01372 µM | 0.999
VA-ES-BJ, 0.04115 µM | 1.02
VA-ES-BJ, 0.1235 µM | 1.02
VA-ES-BJ, 0.3704 µM | 1.03
VA-ES-BJ, 1.111 µM | 1.02
VA-ES-BJ, 3.333 µM | 0.9997
VA-ES-BJ, 10 µM | 0.9486
